According to patent US9067943B2, “[1,2,3]triazolo[4,5-D]pyrimidine derivatives” (priority 2011, dated 2015):
Like-named read-outs stand apart in the source and are kept apart here.

Key:
human CB2 receptors = biological target: T1, human CB2 receptors (Homo sapiens, UniProt P34972); test: cAMP assay; type: cell-based
T1 construct: expressed in transfected cells; host or cells: CHO cells
Method: (§1) CHO cells expressing human CB1 or CB2 receptors are seeded 17-24 hours prior to the experiment 50.000 cells per well in a black 96 well plate with flat clear bottom (Corning Costar #3904) in DMEM (Invitrogen No. 31331), 1×HT supplement, with 10% fetal calf serum and incubated at 5% CO2 and 37° C. in a humidified incubator. The growth medium was exchanged with Krebs Ringer Bicarbonate buffer with 1 mM IBMX and incubated at 30° C. for 30 min. Compounds were added to a final assay volume of 100 μl and incubated for 30 min at 30° C. Using the cAMP-Nano-TRF detection kit the assay (Roche Diagnostics) was stopped by the addition of 50 μl lysis reagent (Tris, NaCl, 1.5% Triton X100, 2.5% NP40, 10% NaN3) and 50 μl detection solutions (20 μM mAb Alexa700-cAMP 1:1, and 48 μM Ruthenium-2-AHA-cAMP) and shaken for 2 h at room temperature. The time-resolved energy transfer is measured by a TRF reader (Evotec Technologies GmbH), equipped with a ND:YAG laser as excitation source. The plate is measured twice with the excitation at 355 nm and at the emission with a delay of 100 ns and a gate of 100 ns, total exposure time 10 s at 730 (bandwidth 30 nm) or 645 nm (bandwidth 75 nm), respectively. The FRET signal is calculated as follows: FRET=T730-Alexa730-P(T645-B645) with P=Ru730-B730/Ru645-B645, where T730 is the test well measured at 730 nM, T645 is the test well measured at 645 nm, B730 and B645 are the buffer controls at 730 nm and 645 nm, respectively. cAMP content is determined from the function of a standard curve spanning from 10 μM to 0.1 nM cAMP.
(§2) EC50 values were determined using Activity Base analysis (ID Business Solution, Limited). The EC50 values for a wide range of cannabinoid agonists generated from this assay were in agreement with the values published in the scientific literature.

human CB1 receptors = biological target: T2, human CB1 receptors (Homo sapiens, UniProt P21554); test: cAMP assay; type: cell-based
T2 construct: expressed in transfected cells; host or cells: CHO cells
T2 sequence (P21554 whole entry): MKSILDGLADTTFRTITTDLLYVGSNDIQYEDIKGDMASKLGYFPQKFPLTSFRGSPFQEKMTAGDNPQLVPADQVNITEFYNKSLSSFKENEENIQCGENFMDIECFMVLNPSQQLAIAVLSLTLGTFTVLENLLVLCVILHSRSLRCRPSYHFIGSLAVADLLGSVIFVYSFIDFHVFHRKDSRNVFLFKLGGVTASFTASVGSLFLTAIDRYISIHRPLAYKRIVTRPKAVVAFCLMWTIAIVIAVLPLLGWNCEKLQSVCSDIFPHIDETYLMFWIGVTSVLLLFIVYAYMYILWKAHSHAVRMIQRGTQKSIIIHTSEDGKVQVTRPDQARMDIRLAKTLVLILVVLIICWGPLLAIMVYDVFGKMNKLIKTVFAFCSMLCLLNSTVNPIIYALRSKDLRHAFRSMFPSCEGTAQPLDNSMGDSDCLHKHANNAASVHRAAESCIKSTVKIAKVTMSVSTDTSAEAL
Method: as §1, §2

[1] = functional cAMP assay, CHO cells expressing human CB2, read-out: human CB2 EC50

T1 sequence (P34972 whole entry): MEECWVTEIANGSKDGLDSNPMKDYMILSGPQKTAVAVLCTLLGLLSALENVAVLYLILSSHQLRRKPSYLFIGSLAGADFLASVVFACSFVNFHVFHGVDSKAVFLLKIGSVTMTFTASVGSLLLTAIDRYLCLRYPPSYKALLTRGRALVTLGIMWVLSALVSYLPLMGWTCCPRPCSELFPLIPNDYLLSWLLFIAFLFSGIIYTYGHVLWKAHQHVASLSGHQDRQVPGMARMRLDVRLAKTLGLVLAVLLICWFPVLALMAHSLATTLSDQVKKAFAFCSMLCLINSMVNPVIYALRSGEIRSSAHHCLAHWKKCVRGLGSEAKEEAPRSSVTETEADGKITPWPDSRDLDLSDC

Compound | EC50 (human CB2 receptors) | EC50 (human CB1 receptors) | EC50 (human CB2 receptors; [1]) | EC50 (human CB1 receptors; functional cAMP assay, head printed human CB2 (probably human CB1), read-out: human CB2 EC50)
CC(C)(C)c1nc(N2CC[C@@](C)(O)C2)c2nn(Cc3ccccc3Cl)nc2n1 [Example 124-b, (R)-1-[5-tert-Butyl-2-(2-chloro-benzyl)-2H-[1,2,3]triazolo[4,5-d]pyrimidin-7-yl]-3-methyl-pyrrolidin-3-ol] | 6.8 nM | > 10 µM | – | –
CC(C)(C)Nc1nc(N2CCC(F)(F)C2)c2nn(Cc3ccccc3S(C)(=O)=O)nc2n1 [Example 137, tert-Butyl-[7-(3,3-difluoro-pyrrolidin-1-yl)-2-(2-methanesulfonyl-benzyl)-2H-[1,2,3]triazolo[4,5-d]pyrimidin-5-yl]-amine] | 5.3 nM | > 10 µM | – | –
CC(C)(C)c1nc(N2CC[C@@](C)(O)C2)c2nn(Cc3ccccc3S(C)(=O)=O)nc2n1 [Example 126-b, (R)-1-[5-tert-Butyl-2-(2-methanesulfonyl-benzyl)-2H-[1,2,3]triazolo[4,5-d]pyrimidin-7-yl]-3-methyl-pyrrolidin-3-ol] | 24 nM | > 10 µM | – | –
CC(=O)N[C@H]1CCN(c2nc(O[C@@H](C)C(F)(F)F)nc3nn(Cc4ccccc4S(C)(=O)=O)nc23)C1 [Example 143, N—{(S)-1-[2-(2-Methanesulfonyl-benzyl)-5-((S)-2,2,2-trifluoro-1-methyl-ethoxy)-2H-[1,2,3]triazolo[4,5-d]pyrimidin-7-yl]-pyrrolidin-3-yl}-acetamide] | – | > 10 µM | 1730 nM | –
CC(C)(C)c1nc(N2CC[C@](C)(O)C2)c2nn(CCC(F)(F)F)nc2n1 [Example 132-a, (S)-1-[5-tert-Butyl-2-(3,3,3-trifluoro-propyl)-2H-[1,2,3]triazolo[4,5-d]pyrimidin-7-yl]-3-methyl-pyrrolidin-3-ol] | 18.1 nM | > 10 µM | – | –
CC(C)(C)c1nc(N2CCC(F)(F)C2)c2nn(Cc3cccc(C(F)(F)F)c3Cl)nc2n1 [Example 56, 5-tert-Butyl-2-(2-chloro-3-trifluoromethyl-benzyl)-7-(3,3-difluoro-pyrrolidin-1-yl)-2H-[1,2,3]triazolo[4,5-d]pyrimidine] | 12.6 nM | > 10 µM | – | –
5-tert-Butyl-2-(1-cyclopropyl-1H-tetrazol-5-ylmethyl)-7-(2-oxa-6-aza-spiro[3.3]hept-6-yl)-2H-[1,2,3]triazolo[4,5-d]pyrimidine [Example 105] | – | – | 110 nM | > 10 µM
CC(C)(C)c1nc(N2CC[C@H](O)C2)c2nn(Cc3nnnn3C3CC3)nc2n1 [Example 94, (S)-1-[5-tert-Butyl-2-(1-cyclopropyl-1H-tetrazol-5-ylmethyl)-2H-[1,2,3]triazolo[4,5-d]pyrimidin-7-yl]-pyrrolidin-3-ol] | – | > 10 µM | 251 nM | –
Cc1nc(Cn2nc3nc(C(C)(C)C)nc(N4CC[C@H](O)C4)c3n2)n(C)n1 [Example 95, (S)-1-[5-tert-Butyl-2-(2,5-dimethyl-2H-[1,2,4]triazol-3-ylmethyl)-2H-[1,2,3]triazolo[4,5-d]pyrimidin-7-yl]-pyrrolidin-3-ol] | – | > 10 µM | 257 nM | –
CC(C)(C)c1nc(N2CC[C@H](O)C2)c2nn(Cc3ccccc3S(C)(=O)=O)nc2n1 [Example 80, (S)-1-[5-tert-Butyl-2-(2-methanesulfonyl-benzyl)-2H-[1,2,3]triazolo[4,5-d]pyrimidin-7-yl]-pyrrolidin-3-ol] | 10.3 nM | > 10 µM | – | –
CC(=O)N[C@H]1CCN(c2nc(O[C@@H](C)C(F)(F)F)nc3nn(Cc4ccccc4C(F)(F)F)nc23)C1 [Example 142, N—{(S)-1-[2-(2-Trifluoromethyl-benzyl)-5-((S)-2,2,2-trifluoro-1-methyl-ethoxy)-2H-[1,2,3]triazolo[4,5-d]pyrimidin-7-yl]-pyrrolidin-3-yl}-acetamide] | – | > 10 µM | 1110 nM | –
CC(C)(C)c1nc(N2CC[C@](C)(O)C2)c2nn(Cc3ccccc3C(F)(F)F)nc2n1 [Example 125-a, (S)-1-[5-tert-Butyl-2-(2-trifluoromethyl-benzyl)-2H-[1,2,3]triazolo[4,5-d]pyrimidin-7-yl]-3-methyl-pyrrolidin-3-ol] | 0.4 nM | 0.398 µM | – | –
CC(C)(C)c1nc(N2CC3(COC3)C2)c2nn(Cc3ccccc3S(C)(=O)=O)nc2n1 [Example 107, 5-tert-Butyl-2-(2-methanesulfonyl-benzyl)-7-(2-oxa-6-aza-spiro[3.3]hept-6-yl)-2H-[1,2,3]triazolo[4,5-d]pyrimidine] | 8.4 nM | > 10 µM | – | –
Cc1noc(Cn2nc3nc(C(C)(C)C)nc(N4CC(F)(F)C(F)(F)C4)c3n2)n1 [Example 100, 5-tert-Butyl-2-(3-methyl-[1,2,4]oxadiazol-5-ylmethyl)-7-(3,3,4,4-tetrafluoro-pyrrolidin-1-yl)-2H-[1,2,3]triazolo[4,5-d]pyrimidine] | 4.6 nM | > 10 µM | – | –
Cc1noc(Cn2nc3nc(C(C)(C)C)nc(N4CC[C@@](C)(O)C4)c3n2)n1 [Example 129-b, (R)-1-[5-tert-Butyl-2-(3-methyl-[1,2,4]oxadiazol-5-ylmethyl)-2H-[1,2,3]triazolo[4,5-d]pyrimidin-7-yl]-3-methyl-pyrrolidin-3-ol] | – | > 10 µM | 316 nM | –
CC(C)(C)c1nc(N2CCC(F)(F)C2)c2nn(Cc3ccncc3)nc2n1 [Example 17, 5-tert-Butyl-7-(3,3-difluoro-pyrrolidin-1-yl)-2-pyridin-4-ylmethyl-2H-[1,2,3]triazolo[4,5-d]pyrimidine] | 0.8 nM | > 10 µM | – | –
CC(C)(C)c1nc(N2CCC(F)(F)C2)c2nn(Cc3ncccc3Cl)nc2n1 [Example 36, 5-tert-Butyl-2-(3-chloro-pyridin-2-ylmethyl)-7-(3,3-difluoro-pyrrolidin-1-yl)-2H-[1,2,3]triazolo[4,5-d]pyrimidine] | 0.2 nM | 0.0203 µM | – | –
CC(C)(C)c1nc(N2CCC(F)(F)C2)c2nn(Cc3ccncc3Cl)nc2n1 [Example 66, 5-tert-Butyl-2-(3-chloro-pyridin-4-ylmethyl)-7-(3,3-difluoro-pyrrolidin-1-yl)-2H-[1,2,3]triazolo[4,5-d]pyrimidine] | 0.4 nM | 0.234 µM | – | –
CC(C)(C)c1nc(N2CCC(F)(F)C2)c2nn(CCc3ccccc3)nc2n1 [Example 26, 5-tert-Butyl-7-(3,3-difluoro-pyrrolidin-1-yl)-2-phenethyl-2H-[1,2,3]triazolo[4,5-d]pyrimidine] | 1.3 nM | 0.386 µM | – | –
C[C@@H](c1ccccc1Cl)n1nc2nc(C(C)(C)C)nc(N3CCC(F)(F)C3)c2n1 [Example 29, 5-tert-Butyl-2-[(S)-1-(2-chloro-phenyl)-ethyl]-7-(3,3-difluoro-pyrrolidin-1-yl)-2H-[1,2,3]triazolo[4,5-d]pyrimidine] | 0.8 nM | 0.098 µM | – | –
CC(C)(C)c1nc(N2CCC(F)(F)C2)c2nn(Cc3ccc(F)cc3Cl)nc2n1 [Example 13, 5-tert-Butyl-2-(2-chloro-4-fluoro-benzyl)-7-(3,3-difluoro-pyrrolidin-1-yl)-2H-[1,2,3]triazolo[4,5-d]pyrimidine] | 1 nM | > 10 µM | – | –
CC(C)(C)c1nc(N2CCC(F)(F)C2)c2nn(CC(=O)c3cccc(Cl)c3)nc2n1 [Example 52, 2-[5-tert-Butyl-7-(3,3-difluoro-pyrrolidin-1-yl)-[1,2,3]triazolo[4,5-d]pyrimidin-2-yl]-1-(3-chloro-phenyl)-ethanone] | 13 nM | > 10 µM | – | –
CC(C)(C)c1nc(N2CCC(F)(F)C2)c2nn(Cc3c(Cl)ccc(F)c3Cl)nc2n1 [Example 33, 5-tert-Butyl-2-(2,6-dichloro-3-fluoro-benzyl)-7-(3,3-difluoro-pyrrolidin-1-yl)-2H-[1,2,3]triazolo[4,5-d]pyrimidine] | 1.2 nM | > 10 µM | – | –
Cn1nnnc1Cn1nc2nc(C(C)(C)C)nc(N3CC[C@H](O)C3)c2n1 [Example 88, (S)-1-[5-tert-Butyl-2-(1-methyl-1H-tetrazol-5-ylmethyl)-2H-[1,2,3]triazolo[4,5-d]pyrimidin-7-yl]-pyrrolidin-3-ol] | 52.1 nM | > 10 µM | – | –
CC(C)(C)c1nc(N2CCC(F)(F)C2)c2nn(CCc3ccccn3)nc2n1 [Example 50, 5-tert-Butyl-7-(3,3-difluoro-pyrrolidin-1-yl)-2-(2-pyridin-2-yl-ethyl)-2H-[1,2,3]triazolo[4,5-d]pyrimidine] | 1.5 nM | > 10 µM | – | –
CC(=O)N[C@H]1CCN(c2nc(OCC(C)(C)C)nc3nn(Cc4ncccc4Cl)nc23)C1 [Example 135, N—{(S)-1-[2-(3-Chloro-pyridin-2-ylmethyl)-5-(2,2-dimethyl-propoxy)-2H-[1,2,3]triazolo[4,5-d]pyrimidin-7-yl]-pyrrolidin-3-yl}-acetamide] | – | > 10 µM | 606 nM | –
